Test [1] deals with HeLa. As to the kind of experiment: Cytotoxicity against human HeLa cells assessed as cell viability after 48 hrs by MTT assay. Type of test: functional, cell-based. For orientation: Formazan colour is commonly taken as a measure of viable cells.
Test [2] relates to A549. As to the kind of experiment: Cytotoxicity against human A549 cells assessed as cell viability after 48 hrs by MTT assay. The class given is functional, cell-based. The following applies: A549, 48 h.
Test [3] has as its system MCF7. As to the kind of experiment: Cytotoxicity against human MCF7 cells assessed as cell viability after 48 hrs by MTT assay. Type of test: functional, cell-based. The following applies: MCF7, 48 h.
Test [4] deals with DU-145. Put plainly: Cytotoxicity against human DU145 cells assessed as cell viability after 48 hrs by MTT assay. The class given is functional, cell-based. The following applies: DU-145, 48 h.
The target in test [5] is Tubulin (Bos taurus) (UniProt Q6B856+Q862L2+Q862F3). Put plainly: Inhibition of bovine brain tubulin polymerization by fluorescence based tubulin polymerization assay.
Test [6] relates to HeLa. Put plainly: Antimitotic activity against human HeLa cells assessed as cells accumulation at G2/M phase at 5 uM after 24 hrs by Propidium iodide staining based FACS/flow cytometry (reference value: 17.68%). The class given is functional.
For test [7], the system named is HeLa. As to the kind of experiment: Antimitotic activity against human HeLa cells assessed as cells accumulation at G2/M phase at 10 uM after 24 hrs by Propidium iodide staining based FACS/flow cytometry (reference value: 17.68%). The class given is functional. In general terms: In flow cytometry, cells or beads pass a laser one at a time.
In test [8] the test system is HeLa. As to the kind of experiment: Antimicrotubule activity in human HeLa cells assessed as multipolar spindle fiber at 5 uM after 24 hrs. The class given is functional, cell-based.
For test [9], the species on record is Danio rerio. Put plainly: Delay in development of wild type zebrafish embryo at 25 uM observed 28 hpf by stereomicroscopy. The class given is functional, organism-based.
In test [10] the test system is HeLa. Put plainly: Antimicrotubule activity in human HeLa cells assessed as metaphase arrest at 5 uM after 24 hrs by immunohistochemistry. The class given is functional, cell-based.

Active and inactive are the calls of the source. The calls are words filed in the database; no cut-off is given here.

A word on the IC50: it is the point on the concentration scale where inhibition reaches its midpoint. Consider `COc1cc(-c2cc(/C=C3\C(=O)Nc4cc(Cl)ccc43)[nH]n2)cc(OC)c1OC`, for which the IC50 in test [1] was found to be 11 µM; in [2] it was 33 µM; in [3], 22 µM; in test [4], 27 µM. Further, in test [5], the INH was determined as 22.4 µM.

On to `COc1ccc2c(c1)/C(=C/c1cc(-c3ccc(OC)c(OC)c3)n[nH]1)C(=O)N2`, for which the IC50 in test [1] was 13 µM; in test [2], 15 µM; in test [3], 32 µM; in [4], 34 µM. In [5], this compound displayed an INH of 22.1 µM.

Turning to `COc1ccc(-c2cc(/C=C3\C(=O)Nc4ccc(Cl)cc43)[nH]n2)cc1OC`, the IC50 in [1] was 10 µM; in test [2], 24 µM; in test [3] it was 16 µM; in test [4], 21 µM. Also, in test [5], the INH stood at 33.8 µM.

Turning to `COc1ccc(-c2cc(/C=C3\C(=O)Nc4ccc([N+](=O)[O-])cc43)[nH]n2)cc1`, the IC50 turned out to be 33 µM in test [1], 22 µM in test [2], 24 µM in test [3] and 26 µM in [4]. In addition, the INH in test [5] was determined as 21 µM.

Turning to `COc1ccc(-c2cc(/C=C3\C(=O)Nc4ccc(Cl)cc43)[nH]n2)cc1`, the IC50 in test [1] turned out to be 5 µM; in [2], 6 µM; in test [3], 9.3 µM; in [4], 4 µM. In addition, the Activity in test [6] was 69.01%; in test [7] it was 72.75%. Moreover, the outcome in [8] and in test [9] was Active. This compound registered an INH in [5] of 8.1 µM.

Consider `COc1ccc(-c2cc(/C=C3\C(=O)Nc4ccc(OC)cc43)[nH]n2)cc1`, for which the concentration for half-maximal inhibition (IC50) in [1] turned out to be 7.1 µM; in [2] it was 8 µM; in test [3], 6 µM; in test [4], 9 µM. The Activity in test [6] is 60.19%; in test [7] it was 60.38%. Moreover, the result in [10] was Active. This compound gave an INH in test [5] of 9.2 µM.

On to `O=C1Nc2ccc(F)cc2/C1=C/c1cc(-c2ccc3c(c2)OCO3)n[nH]1`, for which the IC50 in test [1] turned out to be 32 µM; in test [2], 26 µM; in test [3], 36 µM; in test [4], 21 µM. The compound also registered an INH in test [5] of 24 µM.

In the case of `COc1ccc(-c2cc(/C=C3\C(=O)Nc4ccc(F)cc43)[nH]n2)cc1`, the IC50 in test [1] is 22 µM; in test [2], 29 µM; in test [3], 36 µM; in [4] it was 25 µM. In addition, in test [5], the INH is 25 µM.

`O=C1Nc2ccc(Cl)cc2/C1=C/c1cc(-c2ccc3c(c2)OCO3)n[nH]1`: the 50% inhibitory concentration (IC50) in [1] worked out at 12 µM; in [2], 29 µM; in test [3] it was 44 µM; in [4], 24 µM. This compound also gave an INH in test [5] of 35.3 µM.

For the compound `COc1ccc(-c2cc(/C=C3\C(=O)Nc4ccc([N+](=O)[O-])cc43)[nH]n2)cc1OC`, the 50% inhibitory concentration (IC50) in test [1] came out at 36 µM; in test [2], 42 µM; in test [3] it was 42 µM; in test [4] it was 28 µM. The compound also gave an INH in test [5] of 18 µM.

Turning to `COc1ccc(-c2cc(/C=C3\C(=O)Nc4cc(Cl)ccc43)[nH]n2)cc1`, the concentration for half-maximal inhibition (IC50) was found to be 2.4 µM in test [1], 3 µM in [2], 3.6 µM in [3] and 3 µM in test [4]. The Activity in test [6] turned out to be 71.2%; in test [7] it was 77.6%. Further, the outcome in [8] and in [9] was Active. This compound also came in with an INH in [5] of 5.9 µM.

For the compound `COc1ccc(-c2cc(/C=C3\C(=O)Nc4cc(Cl)ccc43)[nH]n2)cc1OC`, the half-inhibitory concentration (IC50) amounted to 11 µM in [1], 18 µM in [2], 27 µM in [3] and 13.9 µM in test [4]. In [5], this compound showed an INH of 18.9 µM.

Consider `COc1ccc(-c2cc(/C=C3\C(=O)Nc4ccccc43)[nH]n2)cc1OC`, for which the half-inhibitory concentration (IC50) is 21 µM in test [1], 29 µM in test [2], 36 µM in test [3] and 31 µM in test [4]. This compound gave an INH in test [5] of 23 µM.

On to `O=C1Nc2cc(Cl)ccc2/C1=C/c1cc(-c2ccc3c(c2)OCO3)n[nH]1`, for which the IC50 was determined as 7.3 µM in test [1], 27 µM in test [2], 18 µM in test [3] and 24 µM in [4]. The compound further had an INH in test [5] of 14.5 µM.

With `COc1cc(-c2cc(/C=C3\C(=O)Nc4ccc([N+](=O)[O-])cc43)[nH]n2)cc(OC)c1OC`, the IC50 in test [1] came to 30 µM; in [2], 22 µM; in test [3], 16 µM; in [4] it was 20 µM. This compound showed an INH in test [5] of 15.3 µM.

Consider `COc1cc(-c2cc(/C=C3\C(=O)Nc4ccc(Cl)cc43)[nH]n2)cc(OC)c1OC`, for which the IC50 turned out to be 12 µM in test [1], 27 µM in [2], 44 µM in test [3] and 21 µM in [4]. For the same compound, the INH in test [5] is 25.3 µM.

Take `COc1ccc2c(c1)/C(=C/c1cc(-c3ccc4c(c3)OCO4)n[nH]1)C(=O)N2`: the concentration for half-maximal inhibition (IC50) in test [1] came out at 13.5 µM; in test [2], 24 µM; in test [3] it was 9.8 µM; in test [4], 34 µM. In addition, the INH in test [5] was 12 µM.

As to `COc1ccc(-c2cc(/C=C3\C(=O)Nc4ccccc43)[nH]n2)cc1`, the IC50 in [1] is 18 µM; in test [2], 14 µM; in test [3], 15 µM; in test [4] it was 21 µM. Further, the INH in [5] amounted to 38.9 µM. Besides, the outcome in [9] was Active.

For the compound `COC(=O)Nc1nc2cc(C(=O)c3cccs3)ccc2[nH]1` [NOCODAZOLE], the IC50 is 1.1 µM in test [1], 0.89 µM in [2], 1.7 µM in [3] and 3.2 µM in test [4]. The compound further gave an INH in test [5] of 2.2 µM. Moreover, the result in test [9] was Active.

On to `COc1cc(-c2cc(/C=C3\C(=O)Nc4ccccc43)[nH]n2)cc(OC)c1OC`, for which the IC50 in test [1] was determined as 21 µM; in test [2] it was 21 µM; in test [3] it was 27 µM; in test [4], 35 µM. The INH in test [5] worked out at 18 µM.

Take `COc1ccc2c(c1)/C(=C/c1cc(-c3cc(OC)c(OC)c(OC)c3)n[nH]1)C(=O)N2`: the concentration for half-maximal inhibition (IC50) in test [1] was 16 µM; in test [2], 33 µM; in [3], 8.8 µM; in [4], 9.1 µM. In test [5], this compound came in with an INH of 16 µM.

For the compound `O=C1Nc2ccc([N+](=O)[O-])cc2/C1=C/c1cc(-c2ccc3c(c2)OCO3)n[nH]1`, the concentration for half-maximal inhibition (IC50) came out at 24 µM in [1], 37 µM in [2], 17 µM in [3] and 36 µM in test [4]. Moreover, the INH in [5] was 14.7 µM.
